Results: paper PMC7942396, “Drug Repurposing Screen for Compounds Inhibiting the Cytopathic Effect of SARS-CoV-2” (Frontiers in Pharmacology, 2021)
Structures can show the parent of a compound that is named as a salt. Where two headings read alike, the source gives them in different places. Where a SMILES comes first, the peptide text is derived from it. [ ]: non-standard residue; d: D form. Nle = CCCC[C@H](N)C(=O)O

Legend:
[1] = system: Vero E6 cells
[2] = system: SARS-CoV-2 (USA_WA1/2020); test: microbe, parasite or virus in culture; assay type: cell-based; conditions: for EC50: read-out: CPE EC50
[3] = Vero E6 cells without virus, 72 h
[4] = cytotoxicity counter-assay, Vero E6 cells without virus
[5] = read-out: Cytotox CC50, cytotoxicity counter-assay, Vero E6 cells without virus
[6] = SARS-CoV-2 CPE assay, Vero E6 cells, confirmed anti-SARS-CoV-2 compounds
[7] = SARS-CoV-2 CPE assay, Vero E6 cells, efficacy
[8] = […], DMSO 0%, no-virus control 100%, hit confirmation
[9] = SARS-CoV-2 CPE assay, Vero E6 cells

SMILES | % Cytotox [1, 3] [%] | % Cytotox [1, 4] [%] | CC50 [1, 5] [µM] | EC50 [2, 6] [µM] | CPE % Efficacy [2, 7] [%] | CPE % Efficacy [2, 8] [%] | EC50 [2] [µM] | further results
CCCC[C@@H](C=O)NC(=O)[C@H](CC(C)C)NC(=O)[C@H](CC(C)C)NC(C)=O [Calpain Inhibitor I, ALLN, reference compound] (Ac-Leu-Leu-[Nle]-aldehyde) | <30 | 115.5 | 1.13 | 0.0226 | 72.0 | 111.1 | 2 | –
COc1ccccc1OCCNCC(O)COc1cccc2[nH]c3ccccc3c12.O=C(O)C(O)C(O)C(=O)O (stereo not shown) [Carvedilol tartrate] | – | 12.7 | 11.2 | 11.2 | 101.1 | – | – | –
Cn1nc(C(C)(C)C)cc1C(=O)N[C@@H](Cc1cccc(Cl)c1)C(=O)NCC#N [Cathepsin Inhibitor 1, reference compound] | <30 | – | – | – | – | 114.4 | 0.25 | –
CCN(CC)CCCS(=O)(=O)N[C@H](CCc1ccccc1)c1nc(Cc2ccc(Br)cc2)no1 [CpdD hydrochloride, reference compound] | <30 | – | – | – | – | 96.9 | 10 | –
O=C(O)c1ccc(CCCc2ccc(OCCc3ccc(F)cc3)cc2)o1 [D-942] | – | 53.7 | 11.2 | 0.14 | 120.3 | – | – | –
O=C1NC(=O)c2cc(Nc3ccccc3)c(Nc3ccccc3)cc21 [DAPH] | – | 79.5 | 11.2 | 3.98 | 53.9 | – | – | –
NC(=O)c1ccccc1Nc1ccnc(Nc2cccc(O)c2)n1 [DB-07268] | – | 40.9 | 1 | 10 | 52.8 | – | – | –
Cl.Cl.Fc1ccc(-c2nc(C3CCNCC3)sc2-c2ccnc(NC3CC3)n2)cc1 [DBM 1285 dihydrochloride] | – | 61.3 | 11.2 | – | – | – | – | CPE % Efficacy [2, 9]: 56.1%; EC50 [2, 9]: 12.6 µM
CC(=O)O[C@@H]1C[C@H]2C(C)(C)C(=O)C=C[C@]2(C)[C@H]2CC[C@]3(C)C(=CC(=O)O[C@H]3c3ccoc3)[C@@]21C [DEOXYGEDUNIN] | – | 0.0 | – | 11.2 | 107.7 | – | – | –
CCC[C@@H](NC(=O)N1C(=O)C(CC)(CC)[C@@H]1Oc1ccc(C(=O)N2CCN(C)CC2)cc1)c1ccc2c(c1)OCO2 [DMP 777, reference compound] | <30 | – | – | – | – | 92.5 | 10 | –
CC1(C)CCC(C)(C)c2cc(C#Cc3ccc(C(=O)O)cc3)ccc21 [EC 23] | – | 74.0 | 12.6 | 3.98 | 110.5 | – | – | –
CC(C)c1cccc2c(-c3ccccc3)cc(-c3ccc(-c4ccc(C(=O)O)cc4)[nH]3)nc12 [ER 50891] | – | 16.9 | 15.8 | 11.2 | 88.0 | – | – | –
CC(C)C[C@H]1C(=O)O[C@H](Cc2ccc(N3CCOCC3)cc2)C(=O)N(C)[C@@H](CC(C)C)C(=O)O[C@H](C)C(=O)N(C)[C@@H](CC(C)C)C(=O)O[C@H](Cc2ccc(N3CCOCC3)cc2)C(=O)N(C)[C@@H](CC(C)C)C(=O)O[C@H](C)C(=O)N1C [Emodepside] | – | 32.2 | 8.91 | 6.31 | 74.5 | – | – | –
O=C(NCCCCN1CCN(c2cccc(Cl)c2Cl)CC1)c1cc2ccccc2s1 [FAUC-365] | – | 35.5 | 12.6 | 4.47 | 36.5 | – | – | –
CS(=O)(=O)O.Cc1ncc(NC(=O)c2ccc(CN3CCN(C)CC3)c(C(F)(F)F)c2)cc1Nc1nccc(-c2cccnc2)n1 [Flumatinib mesylate] | – | 11.1 | 4.47 | – | – | – | – | CPE % Efficacy [2, 9]: 134.3%; EC50 [2, 9]: 12.6 µM
COc1ccc(NC(=O)c2ccc(-c3ccc(-c4nnc(C)o4)cc3C)cc2)cc1N1CCN(C)CC1 [GMC 2-29, reference compound] | <30 | – | – | – | – | 117.2 | 7.9 | –
Cc1nnc(-c2ccc(-c3ccc(C(=O)Nc4ccc(O)c(N5CCN(C)CC5)c4)cc3)c(C)c2)o1 [GMC 2-113, reference compound] | <30 | – | – | – | – | 129.7 | 10 | –
NC(=O)c1cccc(-c2cc(Nc3ccc(OC(F)(F)F)cc3)ncn2)c1 [GNF-2] | – | 0.0 | – | – | – | – | – | CPE % Efficacy [2, 9]: 63.4%; EC50 [2, 9]: 11.2 µM
COc1cccc(-n2c(=O)[nH]c3cc(Cl)n(-c4ccc(-c5cccc(OC)c5O)cc4)c3c2=O)c1 [GSK621] | – | 58.4 | – | 11.2 | 77.9 | – | – | –
Cc1cc(C)c(CNC(=O)c2cc(-c3ccc(N4CCN(C)CC4)nc3)cc3c2c(C)cn3C(C)C)c(=O)[nH]1 [GSK-503?EZH2 inhibitor] | – | 0.0 | – | – | – | – | – | CPE % Efficacy [2, 9]: 111.9%; EC50 [2, 9]: 12.6 µM
O=C(/C=C/c1ccc(Cl)cc1)N1CCC2(CC1)CN(Cc1ccc(Cl)c(Cl)c1)C(=O)O2 [GSK-682753A] | – | 38.6 | 12.6 | – | – | – | – | CPE % Efficacy [2, 9]: 67.7%; EC50 [2, 9]: 11.2 µM
COc1cc(-n2cnc3cc(-c4ccc(Cl)cc4)sc3c2=O)ccc1OCCN1CCCC1 [GW 803430, reference compound] | <30 | – | – | – | – | 93.3 | 3.5 | –

SMILES | % Cytotox [1, 3] [%] | % Cytotox [1, 4] [%] | CC50 [1, 5] [µM] | EC50 [2, 6] [µM] | CPE % Efficacy [2, 7] [%] | CPE % Efficacy [2, 8] [%] | EC50 [2] [µM] | further results
CC(C)c1onc(-c2c(Cl)cccc2Cl)c1COc1ccc(/C=C/c2cccc(C(=O)O)c2)c(Cl)c1 [GW-4064X] | – | 60.4 | – | – | – | – | – | CPE % Efficacy [2, 9]: 73.5%; EC50 [2, 9]: 12.6 µM
CCCCCCCCC(=O)N[C@H](CN1CCCC1)[C@H](O)c1ccc2c(c1)OCCO2 [Genz-123346 (free base), reference compound] | <30 | – | – | – | – | 99.4 | 10 | –
Cc1c(C(=O)Nc2cccc(C(F)(F)F)c2)cc(-c2ccccc2)n1CCCN1CCOCC1 [HC-067047] | – | 45.7 | – | 10 | 64.2 | – | – | –
Cc1nc(Nc2cnn(C3CCNCC3)c2)nc2c1N(C)C(=O)c1cc3ccccc3cc1N2C [HTH-01-015] | – | 40.5 | 12.6 | 11.2 | 95.2 | – | – | –
N#Cc1c(C2CCNCC2)cc(-c2c(O)cccc2OCC2CC2)nc1N [IKK-2 inhibitor VIII, reference compound] | <30 | – | – | – | – | 91.7 | 7.1 | –
O=C(c1ccc(Nc2nccc(-c3cc4ccccc4s3)n2)cc1)N1CCC(N2CCCC2)CC1 [IKK-16] | – | 107.2 | 10 | 3.55 | 110.2 | – | – | –
CC1(C)CN2C(CSC(=NC3CCCCC3)NC3CCCCC3)=CSC2=N1.Cl.Cl [IT1t dihydrochloride, reference compound] | <30 | – | – | – | – | 96.3 | 3.5 | –
C[C@H](CCC(=O)O)C[C@H](C)C[C@H](C)C(=O)/C=C(\O)[C@H](C)C[C@H](C)C/C=C/[C@@H](C)[C@@H](O)[C@@H](C)[C@@H](O)C[C@@H]1CC[C@@](C)([C@H]2CC[C@@](C)([C@@H](C)O)O2)O1 [Ionomycin(Calciumsalt)] | – | 69.7 | 6.95 | 7.8 | 90.4 | – | – | –
CCCCN1[C@@H]2CC[C@H]1CC(OC(c1ccc(F)cc1)c1ccc(F)cc1)C2.Cl (stereo partly shown) [JHW 007 hydrochloride] | – | 38.8 | 12.6 | 7.08 | 87.4 | – | – | –
COc1ccccc1Nc1nc(-c2sc(NC(C)=O)nc2C)cs1 [JNJ0966] | – | 61.5 | 11.2 | 11.2 | 38.6 | – | – | –
CN(C)CC(=O)N1CCC(c2ccc(NC(=O)c3nc(C#N)c[nH]3)c(C3=CCCCC3)c2)CC1 [JNJ-28312141] | – | 60.9 | 12.6 | – | – | – | – | CPE % Efficacy [2, 9]: 37.8%; EC50 [2, 9]: 14.1 µM
COc1ccc2c(c1)CN(C(=O)CCN1CCC(Cc3ccccc3)CC1)CCS2 [JTV519 Hemifumarate, reference compound] | <30 | – | – | – | – | 85.7 | 5.5 | –
COc1ccc2sc(NC(c3ccc(OC(F)F)cc3)c3ccc4cccnc4c3O)nc2c1 (stereo not shown) [KIN1408] | – | 77.9 | 0.71 | 0.89 | 69.8 | – | – | –
COc1ccc(S(=O)(=O)N(CCO)c2ccccc2CN(C)C/C=C/c2ccc(Cl)cc2)cc1 [KN-93] | – | 34.4 | 11.2 | 11.2 | 69.0 | – | – | –
CC(=O)O/N=C1\C(=O)N(Cc2cc(Cl)ccc2Cl)c2ccc(Cl)cc21 [LDN-57444] | – | – | – | 11.2 | 129.8 | – | – | % Cytotox [1]: 40.6%; CC50 [1]: 12.6 µM
COc1cc(-c2cc(-c3ccc(N4CCNCC4)cc3)cnc2C)cc(OC)c1OC [LDN-214117] | – | 53.6 | 11.2 | – | – | – | – | CPE % Efficacy [2, 9]: 39.2%; EC50 [2, 9]: 11.2 µM
CS(=O)(=O)NCC1CCC(Nc2nc3c(s2)CCSc2ccccc2-3)CC1 (stereo not shown) [LU AA33810] | – | 0.0 | – | – | – | – | – | CPE % Efficacy [2, 9]: 48.3%; EC50 [2, 9]: 12.6 µM
CC(C)(C)Cn1c(N)nc2ccc(-c3[nH]c(C(C)(C)C)nc3-c3ccc(F)cc3)nc21 [LY-2228820 (ralimetinib)] | – | 78.9 | 12.6 | 1.58 | 85.9 | – | – | –
Cl.Fc1ccc2c(CCNCc3cccc(OCC(F)(F)C(F)F)c3)c[nH]c2c1 [Lu AE58054 hydrochloride, reference compound] | <30 | – | – | – | – | 97.2 | 10 | –
CC1(N2CCC(n3c([C@@H]4CCCNC4)nc4ccccc43)CC2)CCCCCCC1 [MCOPPB, reference compound] | <30 | – | – | – | – | 85.6 | 3.5 | –
Cc1cnc(NC(=O)c2cc(S(=O)(=O)N(C)C)ccc2N2CCCC2)s1 [ML414, reference compound] | <30 | – | – | – | – | – | 3.2 | –
